Each structure is given as a SMILES string.

Common to all, as to assay type: biochemical
One assay has as its target T1, JAK3 (Homo sapiens, UniProt P52333).
T1 sequence (P52333 1-1124): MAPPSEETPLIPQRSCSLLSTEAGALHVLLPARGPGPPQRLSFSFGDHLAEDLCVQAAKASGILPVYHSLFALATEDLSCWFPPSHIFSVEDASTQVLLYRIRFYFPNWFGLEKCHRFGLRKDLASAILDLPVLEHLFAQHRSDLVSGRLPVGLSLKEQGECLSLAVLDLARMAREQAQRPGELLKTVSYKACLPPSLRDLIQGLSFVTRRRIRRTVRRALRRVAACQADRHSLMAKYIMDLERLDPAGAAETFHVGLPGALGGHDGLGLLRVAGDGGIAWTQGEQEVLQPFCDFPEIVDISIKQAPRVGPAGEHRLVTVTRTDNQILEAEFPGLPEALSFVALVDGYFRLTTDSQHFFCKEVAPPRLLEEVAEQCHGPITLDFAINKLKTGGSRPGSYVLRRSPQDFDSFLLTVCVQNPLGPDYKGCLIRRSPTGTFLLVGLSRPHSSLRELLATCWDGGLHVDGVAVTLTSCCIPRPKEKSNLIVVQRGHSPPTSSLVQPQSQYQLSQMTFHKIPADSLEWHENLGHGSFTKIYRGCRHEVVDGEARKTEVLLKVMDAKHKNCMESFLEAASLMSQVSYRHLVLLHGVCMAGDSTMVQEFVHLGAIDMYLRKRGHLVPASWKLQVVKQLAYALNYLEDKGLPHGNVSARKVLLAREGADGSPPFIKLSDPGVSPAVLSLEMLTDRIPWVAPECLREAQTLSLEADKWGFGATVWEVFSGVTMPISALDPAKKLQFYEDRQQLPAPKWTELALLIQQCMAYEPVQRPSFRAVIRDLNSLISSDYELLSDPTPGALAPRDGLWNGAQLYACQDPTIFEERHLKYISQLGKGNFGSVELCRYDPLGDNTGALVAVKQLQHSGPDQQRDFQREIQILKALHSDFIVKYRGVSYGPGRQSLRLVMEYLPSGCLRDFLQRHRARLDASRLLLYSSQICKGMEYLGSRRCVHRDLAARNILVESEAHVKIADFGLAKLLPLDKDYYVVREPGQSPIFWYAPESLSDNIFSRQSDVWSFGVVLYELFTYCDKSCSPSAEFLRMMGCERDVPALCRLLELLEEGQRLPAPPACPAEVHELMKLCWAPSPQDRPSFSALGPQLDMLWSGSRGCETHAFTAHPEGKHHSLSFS
The assay is described as follows: JAK3 inhibition assay (standard radioactive enzyme assay). To be noted: average Ki if more than one value determined. Here is the method: (§1) Compounds were screened for their ability to inhibit JAK3 using a standard radioactive enzyme assay. 1.5 μL/well of a DMSO stock containing serial dilutions of a compound of the present invention (concentrations ranging from 667 μM to 46 nM) was placed in a 96 well polycarbonate plate. 50 μL per well of kinase buffer (100 mM HEPES (pH 7.4), 10 mM MgCl2, 25 mM NaCl, 1 mM DTT, and 0.01% bovine serum albumin (BSA)) containing 2 μM poly(Glu)4Tyr and 10 μM ATP was also added to the plate. To initiate the reaction, 50 μL kinase buffer containing 2 nM JAK3 enzyme was added. Final ATP concentration was 5 μM [γ-^33P] ATP (200 μCi ^33P ATP/μmol ATP (Perkin Elmer, Cambridge, Mass.). After 20 minutes at room temperature (25° C.), the reaction was stopped by adding 50 μL 20% trichloroacetic acid (TCA)/0.4 mM ATP to each well. The entire content of each well was then transferred to a 96 well glass fiber filter plate using a TomTek Cell Harvester. After washing, 60 μL scintillation fluid was added and ^33P incorporation detected using a Perkin Elmer TopCount. After removing mean background values for all of the data points the data was fit using Prism software to obtain a Ki(app). Inhibition of JAK2 was measured as above except that final poly(Glu)4Tyr concentration was 15 μM and final ATP concentration was 12 μM.

The next assay concerns the target JAK2 (Homo sapiens, UniProt O60674). The assay is described as follows: JAK2 inhibition assay (radioactive enzyme assay, as for JAK3). To be noted: average Ki if more than one value determined. As to the method:
as §1

The next assay addresses T2, ROCK I (AA 6-553) (Homo sapiens, UniProt Q13464).
T2 construct: ROCK I (AA 6-553)
The assay is described as follows: ROCK inhibition assay, standard coupled enzyme system ("Enzyme"). To be noted: enzyme-linked assay. An outline of the steps:
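ROCK I (AA 6-553) at 45 nM and 30 °C with 45 μM ATP and 200 μM peptide, in 100 mM HEPES pH 7.5, 10 mM MgCl2, 25 mM NaCl, 2 mM DTT, 1.5% DMSO. ADP output read by a PK/LDH coupled system: 2.5 mM PEP, 350 μM NADH, 30 μg/ml PK, 10 μg/ml LDH.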

T2 sequence (Q13464 6-553, species assumed): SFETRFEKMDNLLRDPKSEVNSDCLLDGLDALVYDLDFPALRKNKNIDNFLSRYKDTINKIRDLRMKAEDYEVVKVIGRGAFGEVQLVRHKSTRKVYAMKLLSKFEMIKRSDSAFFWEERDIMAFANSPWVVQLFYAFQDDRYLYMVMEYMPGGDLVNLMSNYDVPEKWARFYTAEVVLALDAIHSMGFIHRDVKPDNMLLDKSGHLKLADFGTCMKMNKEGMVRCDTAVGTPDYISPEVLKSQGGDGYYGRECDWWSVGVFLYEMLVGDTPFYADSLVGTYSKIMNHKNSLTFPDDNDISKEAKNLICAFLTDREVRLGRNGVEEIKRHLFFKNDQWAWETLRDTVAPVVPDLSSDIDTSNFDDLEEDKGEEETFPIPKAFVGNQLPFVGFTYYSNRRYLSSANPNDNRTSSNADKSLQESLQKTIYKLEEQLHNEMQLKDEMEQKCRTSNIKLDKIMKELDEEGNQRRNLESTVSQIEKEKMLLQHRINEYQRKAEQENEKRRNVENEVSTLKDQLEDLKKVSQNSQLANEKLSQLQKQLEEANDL
Sequence of JAK2 (O60674 whole entry, species assumed): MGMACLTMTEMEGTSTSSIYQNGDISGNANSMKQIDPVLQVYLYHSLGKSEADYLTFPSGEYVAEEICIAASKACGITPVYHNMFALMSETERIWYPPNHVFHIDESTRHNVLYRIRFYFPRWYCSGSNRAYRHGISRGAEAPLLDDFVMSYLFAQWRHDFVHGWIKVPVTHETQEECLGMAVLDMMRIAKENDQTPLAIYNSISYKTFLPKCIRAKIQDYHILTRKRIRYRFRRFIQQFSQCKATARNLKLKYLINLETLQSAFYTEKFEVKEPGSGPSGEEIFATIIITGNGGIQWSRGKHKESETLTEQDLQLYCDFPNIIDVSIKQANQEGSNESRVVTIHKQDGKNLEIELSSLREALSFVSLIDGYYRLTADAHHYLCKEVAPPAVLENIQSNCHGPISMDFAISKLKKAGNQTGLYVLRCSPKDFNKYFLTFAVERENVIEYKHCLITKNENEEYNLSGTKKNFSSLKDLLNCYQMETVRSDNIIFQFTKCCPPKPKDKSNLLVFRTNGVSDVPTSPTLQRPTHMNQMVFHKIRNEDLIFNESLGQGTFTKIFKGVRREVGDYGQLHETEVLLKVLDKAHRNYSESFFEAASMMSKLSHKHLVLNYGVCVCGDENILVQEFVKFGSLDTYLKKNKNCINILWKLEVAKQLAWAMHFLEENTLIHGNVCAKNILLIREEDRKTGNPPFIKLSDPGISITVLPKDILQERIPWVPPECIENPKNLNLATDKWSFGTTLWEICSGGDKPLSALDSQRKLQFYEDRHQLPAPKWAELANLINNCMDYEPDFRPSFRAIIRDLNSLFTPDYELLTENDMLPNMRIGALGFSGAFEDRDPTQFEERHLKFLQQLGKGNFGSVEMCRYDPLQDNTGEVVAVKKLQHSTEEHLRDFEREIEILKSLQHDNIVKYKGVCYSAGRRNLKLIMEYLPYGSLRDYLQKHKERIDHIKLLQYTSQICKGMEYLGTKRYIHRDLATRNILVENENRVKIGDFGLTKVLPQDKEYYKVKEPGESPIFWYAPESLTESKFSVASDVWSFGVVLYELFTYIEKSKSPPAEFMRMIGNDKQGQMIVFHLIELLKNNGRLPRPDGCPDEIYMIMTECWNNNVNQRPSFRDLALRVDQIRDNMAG

Usually Ki stands for the equilibrium dissociation constant of an inhibitor or competing ligand from its target. For `CC(=O)N1[C@H](C)CN(c2cccc(-c3c[nH]c4ncc(NC(=O)OCC(C)C)cc34)n2)C[C@@H]1C` [Compound 63], the Ki at JAK3, at JAK2 and at ROCK I (AA 6-553) was less than 500 nM in each case.

On to `O=C(Nc1cccc(-c2c[nH]c3ncc(Cl)cc23)n1)OCc1ccccc1` [Compound 91], for which the Ki at JAK3, on JAK2 and at ROCK I (AA 6-553) was 500 to 5000 nM throughout.

On to `CCC(C)C(=O)Nc1cnc2[nH]cc(-c3cccc(N4C[C@@H](C)N(C(C)=O)[C@@H](C)C4)n3)c2c1` (stereo partly drawn) [Compound 180], for which the figures for the Ki on JAK3, on JAK2 and on ROCK I (AA 6-553) were less than 500 nM, less than 500 nM and 500 to 5000 nM, respectively.

Take `CC(=O)Nc1cc(-c2c[nH]c3ncc(Cl)cc23)nc(N2C[C@@H](C)N(C(C)=O)[C@@H](C)C2)c1` [Compound 160]: the Ki at JAK3 was less than 500 nM; on JAK2, less than 500 nM; at ROCK I (AA 6-553), 500 to 5000 nM.

Take `CC(=O)N1[C@H](C)CN(c2cccc(-c3c[nH]c4ncc(NC(=O)N5CCOCC5)cc34)n2)C[C@@H]1C` [Compound 127]: the Ki was less than 500 nM on JAK3, less than 500 nM on JAK2 and 500 to 5000 nM at ROCK I (AA 6-553).

On to `C[C@@H](Nc1cccc(-c2c[nH]c3ncc(Cl)cc23)n1)C1CCCCC1` [Compound 129], for which the Ki is less than 500 nM at JAK3, 500 to 5000 nM on JAK2 and 500 to 5000 nM at ROCK I (AA 6-553).

`O[C@@H]1Cc2ccccc2[C@@H]1Nc1cccc(-c2c[nH]c3ncc(Cl)cc23)n1` [Compound 137]: the Ki on JAK3 is less than 500 nM; on JAK2, less than 500 nM; on ROCK I (AA 6-553), 500 to 5000 nM.

With `CC(=O)N1[C@H](C)CN(c2cccc(-c3c[nH]c4ncc(O)cc34)n2)C[C@@H]1C` [Compound 77], the Ki is less than 500 nM at JAK3, less than 500 nM on JAK2 and 500 to 5000 nM at ROCK I (AA 6-553).

As to `O=C(O)c1ccc(-c2c[nH]c3ncc(Cl)cc23)nc1` [Compound 106], the Ki on JAK3 is less than 500 nM; on JAK2, less than 500 nM; at ROCK I (AA 6-553) it was 500 to 5000 nM.

Take `CCOC(=O)N1CCCN(c2cccc(-c3c[nH]c4ncc(Cl)cc34)n2)CC1` [Compound 84]: the Ki was less than 500 nM at JAK3, less than 500 nM on JAK2 and 500 to 5000 nM on ROCK I (AA 6-553).

Regarding `CC(=O)N1[C@H](C)CN(c2cc(-c3nnn[nH]3)cc(-c3c[nH]c4ncc(Cl)cc34)n2)C[C@@H]1C` [Compound 111], the Ki at JAK3 is less than 500 nM; at JAK2 it was less than 500 nM; on ROCK I (AA 6-553), 500 to 5000 nM.

In the case of `COc1cnc2[nH]cc(-c3cccc(N4CCCN(C(C)=O)CC4)n3)c2c1` [Compound 112], the Ki on JAK3 was less than 500 nM; on JAK2, less than 500 nM; at ROCK I (AA 6-553), 500 to 5000 nM.

Take `CC(=O)N1[C@H](C)CN(c2cccc(-c3c[nH]c4ncc(NC(=O)CN5CCNCC5)cc34)n2)C[C@@H]1C` [Compound 115]: the figures for the Ki on JAK3, on JAK2 and at ROCK I (AA 6-553) were less than 500 nM, less than 500 nM and 500 to 5000 nM, respectively.

`CCCOC(=O)Nc1cccc(-c2c[nH]c3ncc(Cl)cc23)n1` [Compound 88]: the Ki at JAK3 was less than 500 nM; at JAK2, less than 500 nM; on ROCK I (AA 6-553), 500 to 5000 nM.

As to `CC(=O)Nc1cnc2[nH]cc(-c3cccc(N4CCCN(C(C)=O)CC4)n3)c2c1` [Compound 140], the Ki at JAK3 was less than 500 nM; at JAK2, less than 500 nM; at ROCK I (AA 6-553), 500 to 5000 nM.

As to `CC(=O)N1[C@H](C)CN(c2cccc(-c3c[nH]c4ncc(NC(=O)CN5CCOCC5)cc34)n2)C[C@@H]1C` [Compound 116], the results for the Ki on JAK3, on JAK2 and on ROCK I (AA 6-553) were less than 500 nM, less than 500 nM and 500 to 5000 nM, respectively.

Take `CC(=O)N1[C@H](C)CN(c2cccc(-c3c[nH]c4ncc(C(=O)OCC(C)C)cc34)n2)C[C@@H]1C` [Compound 74]: the Ki on JAK3, at JAK2 and on ROCK I (AA 6-553) was less than 500 nM in each case.

Consider `Nc1cc(C(=O)O)cc(-c2c[nH]c3ncc(Cl)cc23)c1` [Compound 148], for which the results for the Ki at JAK3, on JAK2 and on ROCK I (AA 6-553) were less than 500 nM, 500 to 5000 nM and less than 500 nM, respectively.

`Clc1cnc2[nH]cc(-c3ccc4ncccc4c3)c2c1` [Compound 200]: the Ki is less than 500 nM at JAK3, 500 to 5000 nM on JAK2 and 500 to 5000 nM at ROCK I (AA 6-553).

With `Clc1cnc2[nH]cc(-c3ccccn3)c2c1` [Compound 184], the results for the Ki at JAK3, at JAK2 and on ROCK I (AA 6-553) were less than 500 nM, 500 to 5000 nM and 500 to 5000 nM, respectively.

For the molecule `Clc1cnc2[nH]cc(-c3cccc4cccnc34)c2c1` [Compound 202], the Ki on JAK3, at JAK2 and on ROCK I (AA 6-553) was 500 to 5000 nM each time.

`Cc1cc(C(F)(F)F)cc(-c2c[nH]c3ncc(Cl)cc23)n1` [Compound 196]: the values for the Ki on JAK3, at JAK2 and at ROCK I (AA 6-553) were 500 to 5000 nM, greater than 5000 nM and 500 to 5000 nM, respectively.

`CCC(=O)Nc1cnc2[nH]cc(-c3cccc(N4CCCN(C(C)=O)CC4)n3)c2c1` [Compound 141]: the Ki on JAK3 is less than 500 nM; at JAK2 it was less than 500 nM; on ROCK I (AA 6-553), 500 to 5000 nM.

As for `CC(=O)N1[C@H](C)CN(c2cccc(-c3c[nH]c4ncc(NC(=O)OCC(C)(C)C)cc34)n2)C[C@@H]1C` [Compound 64], the Ki on JAK3 is less than 500 nM; on JAK2 it was less than 500 nM; on ROCK I (AA 6-553), 500 to 5000 nM.

Take `COc1ccc(OC(=O)Nc2cnc3[nH]cc(-c4cccc(N5C[C@@H](C)N(C(C)=O)[C@@H](C)C5)n4)c3c2)cc1` [Compound 71]: the inhibition constant (Ki) is less than 500 nM on JAK3, less than 500 nM at JAK2 and 500 to 5000 nM on ROCK I (AA 6-553).

On to `CC(C)[C@H](CO)Nc1cccc(-c2c[nH]c3ncc(Cl)cc23)n1` [Compound 135], for which the Ki at JAK3, on JAK2 and at ROCK I (AA 6-553) was less than 500 nM each time.

As to `CC(=O)N1[C@H](C)CN(c2cccc(-c3c[nH]c4ncc(OCCCN(C)C)cc34)n2)C[C@@H]1C` [Compound 194], the Ki was less than 500 nM at JAK3, less than 500 nM on JAK2 and 500 to 5000 nM at ROCK I (AA 6-553).

In the case of `CN(C)c1cccc(-c2c[nH]c3ncc(Cl)cc23)c1` [Compound 144], the figures for the inhibitory constant (Ki) at JAK3, at JAK2 and on ROCK I (AA 6-553) were less than 500 nM, less than 500 nM and 500 to 5000 nM, respectively.

As for `CC(C)Oc1cccc(-c2c[nH]c3ncc(Cl)cc23)c1` [Compound 143], the Ki on JAK3 was less than 500 nM; at JAK2, 500 to 5000 nM; at ROCK I (AA 6-553), 500 to 5000 nM.
